The assay has as its system 817829-284-R-J1-PDC multi-cell spheroid viability. The experiment in a line: Anticancer human tumor 817829-284-R-J1-PDC patient-derived colon adenocarcinoma cell line growth inhibition [PI3K]. The conditions noted are these: for viability, T/C: stronger effect = lower value. In a few lines: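 We assembled tumor spheroids that included a stromal compartment of HUVEC and MSCs, then exposed them to targeted agents alone and together with PI3K pathway inhibitors. Concentration series descended by half-log from clinically achievable Cmax levels. Viability served as the endpoint.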

Setting [1] is: curve of first compound, second compound 0.0316 µM.
Where [2] appears, read: curve of first compound, second compound 0.1 µM.
Where [3] appears, read: curve of first compound, second compound 0.316 µM.
Where [4] appears, read: curve of first compound, second compound 1 µM.
[5] abbreviates: second compound 0.0316 µM, first compound 0.0316 µM.
The mark [6] stands for this setting: second compound 0.0316 µM, first compound 0.1 µM.
Setting [7] is: second compound 0.0316 µM, first compound 0.316 µM.
[8] abbreviates: second compound 0.0316 µM, first compound 1 µM.
Where [9] appears, read: second compound 0.0316 µM, first compound 3.16 µM.
The mark [10] stands for this setting: second compound 0.0316 µM, first compound 10 µM.
[11] abbreviates: second compound 0.1 µM, first compound 0.0316 µM.
Setting [12] is: second compound 0.1 µM, first compound 0.1 µM.
The mark [13] stands for this setting: second compound 0.1 µM, first compound 0.316 µM.
Setting [14] is: second compound 0.1 µM, first compound 1 µM.
Where [15] appears, read: second compound 0.1 µM, first compound 3.16 µM.
[16] abbreviates: second compound 0.1 µM, first compound 10 µM.
The mark [17] stands for this setting: second compound 0.316 µM, first compound 0.0316 µM.
The mark [18] stands for this setting: second compound 0.316 µM, first compound 0.1 µM.
Setting [19] is: second compound 0.316 µM, first compound 0.316 µM.
The mark [20] stands for this setting: second compound 0.316 µM, first compound 1 µM.
Setting [21] is: second compound 0.316 µM, first compound 3.16 µM.
The mark [22] stands for this setting: second compound 0.316 µM, first compound 10 µM.
The mark [23] stands for this setting: second compound 1 µM, first compound 0.0316 µM.
The mark [24] stands for this setting: second compound 1 µM, first compound 0.1 µM.
[25] abbreviates: second compound 1 µM, first compound 0.316 µM.
Setting [26] is: second compound 1 µM, first compound 1 µM.
Setting [27] is: second compound 1 µM, first compound 3.16 µM.
The mark [28] stands for this setting: second compound 1 µM, first compound 10 µM.
[29] abbreviates: curve of first compound, second compound 0.00316 µM.
Setting [30] is: curve of first compound, second compound 0.01 µM.
The mark [31] stands for this setting: second compound 0.00316 µM, first compound 0.0316 µM.
[32] abbreviates: second compound 0.00316 µM, first compound 0.1 µM.
Where [33] appears, read: second compound 0.00316 µM, first compound 0.316 µM.
[34] abbreviates: second compound 0.00316 µM, first compound 1 µM.
Setting [35] is: second compound 0.00316 µM, first compound 3.16 µM.
[36] abbreviates: second compound 0.00316 µM, first compound 10 µM.
Where [37] appears, read: second compound 0.01 µM, first compound 0.0316 µM.
Setting [38] is: second compound 0.01 µM, first compound 0.1 µM.
Where [39] appears, read: second compound 0.01 µM, first compound 0.316 µM.
The mark [40] stands for this setting: second compound 0.01 µM, first compound 1 µM.
[41] abbreviates: second compound 0.01 µM, first compound 3.16 µM.
Setting [42] is: second compound 0.01 µM, first compound 10 µM.

Where “and” joins values, the source holds several entries; their conditions need not be identical. Identical values can stand only once.
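Note: spheroids exposed to agents for seven days before readout.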
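Throughout, for viability, T/C: percent of vehicle DMSO control viability which is 100%.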

For the compound `C=CC(=O)N1CCN(c2nc(=O)n(-c3c(C)ccnc3C(C)C)c3nc(-c4c(O)cccc4F)c(F)cc23)C(C)C1` (centres undefined) + Cc1nc(NC(=O)N2CCCC2C(N)=O)sc1-c1ccnc(C(C)(C)C(F)(F)F)c1, the concentration for half-maximal inhibition (IC50) was over 10 µM under setting [1]; 5.98 µM under setting [2]; 6.17 µM under setting [3]; 6.27 µM under setting [4]; over 10 µM (curve of first compound, second compound 3.16 µM); 0.0565 µM (curve of first compound, second compound 10 µM). Moreover, the viability, T/C runs as follows: under setting [5], 75.1%; under setting [6], 75.8%; under setting [7], 114%; under setting [8], 77%; under setting [9], 91%; under setting [10], 54.7%. For the same compound, the viability, T/C under setting [11] was 68.7%; the viability, T/C under setting [12] is 70.2%; the viability, T/C under setting [13] is 68.1%; the viability, T/C under setting [14] is 53.5%; the viability, T/C under setting [15] was 91.9%; the viability, T/C under setting [16] is 33.6%. The viability, T/C under setting [17] was 80.1%; the viability, T/C under setting [18] is 63.8%; the viability, T/C under setting [19] was 95.7%; the viability, T/C under setting [20] is 55.7%; the viability, T/C under setting [21] was 66%; the viability, T/C under setting [22] is 41.2%. The viability, T/C is 81.5% under setting [23]; 65.3% under setting [24]; 84.3% under setting [25]; 63.1% under setting [26]; 92.3% under setting [27]; 31.4% under setting [28]. Further, the viability, T/C was 71.2% (second compound 3.16 µM, first compound 0.0316 µM); 61.8% (second compound 3.16 µM, first compound 0.1 µM); 55.3% (second compound 3.16 µM, first compound 0.316 µM); 75.8% (second compound 3.16 µM, first compound 1 µM); 85.2% (second compound 3.16 µM, first compound 3.16 µM); 50.9% (second compound 3.16 µM, first compound 10 µM). The viability, T/C is, setting by setting: (second compound 10 µM, first compound 0.0316 µM) 51.5%; (second compound 10 µM, first compound 0.1 µM) 49.2%; (second compound 10 µM, first compound 0.316 µM) 40.8%; (second compound 10 µM, first compound 1 µM) 51.6%; (second compound 10 µM, first compound 3.16 µM) 51.1%; (second compound 10 µM, first compound 10 µM) 37.4%.

As for `CC1(C)CCC(Nc2ncc(C(F)(F)F)c(-c3c[nH]c4c(P(C)(C)=O)c(C#N)ccc34)n2)CN1` (centres undefined), the viability, T/C is, setting by setting: (compound 0.0316 µM) 25.3% and 24.7%; (compound 0.1 µM) 25% and 26.2%; (compound 0.316 µM) 27.4% and 32.9%; (compound 1 µM) 30.6% and 31.8%; (compound 3.16 µM) 32.7% and 38.6%; (compound 10 µM) 0.65% and 1.29%. Besides, the IC50 (curve of compound) is under 0.0316 µM.

Take `C=CC(=O)N1CCN(c2nc(=O)n(-c3c(C)ccnc3C(C)C)c3nc(-c4c(O)cccc4F)c(F)cc23)C(C)C1` (centres undefined) + CC(Nc1ccc2c(c1)OCCn1cc(N3C(=O)OCC3C(F)F)nc1-2)C(N)=O: the IC50 was over 10 µM under setting [29]; over 10 µM under setting [30]; over 10 µM under setting [1]; 6.65 µM under setting [2]; over 10 µM under setting [3]; over 10 µM under setting [4]. The viability, T/C is 91.4% under setting [31]; 93.3% under setting [32]; 82.9% under setting [33]; 71.9% under setting [34]; 77.9% under setting [35]; 55.4% under setting [36]. Also, the viability, T/C under setting [37] is 62.7%; the viability, T/C under setting [38] is 57.7%; the viability, T/C under setting [39] was 83.9%; the viability, T/C under setting [40] is 78.6%; the viability, T/C under setting [41] was 84.8%; the viability, T/C under setting [42] is 38.9%. Besides, the viability, T/C was 53.8% under setting [5]; 112% under setting [6]; 108% under setting [7]; 51.1% under setting [8]; 64% under setting [9]; 73.7% under setting [10]. Moreover, the viability, T/C under setting [11] was 64.7%; the viability, T/C under setting [12] was 92.2%; the viability, T/C under setting [13] is 79.2%; the viability, T/C under setting [14] is 84.2%; the viability, T/C under setting [15] was 78.9%; the viability, T/C under setting [16] is 34.1%. The viability, T/C is 60.1% under setting [17]; 75.9% under setting [18]; 67.4% under setting [19]; 52.6% under setting [20]; 68% under setting [21]; 44.6% under setting [22]. The viability, T/C is, setting by setting: under setting [23], 61.6%; under setting [24], 53.9%; under setting [25], 79.3%; under setting [26], 57.3%; under setting [27], 62.7%; under setting [28], 53.5%.

As for `Cc1nc(NC(=O)N2CCCC2C(N)=O)sc1-c1ccnc(C(C)(C)C(F)(F)F)c1` (centres undefined), the viability, T/C (compound 10 µM) is 68.7% [middle of 6 runs]. Besides, the IC50 (compound alone, run of 04/24/2023) was over 10 µM.

For `C#Cc1c(F)ccc2cc(O)cc(-c3ncc4c(N5CC6CCC(C5)N6)nc(OCC56CCCN5CC(F)C6)nc4c3F)c12` (centres undefined), the viability, T/C (compound 0.0316 µM) is 83.3% and 99%; the viability, T/C (compound 0.1 µM) is 95.1% and 72.9%; the viability, T/C (compound 0.316 µM) was 69.9% and 83%; the viability, T/C (compound 1 µM) is 68.4% and 99.7%; the viability, T/C (compound 3.16 µM) is 87.7% and 88.6%; the viability, T/C (compound 10 µM) is 33.2% and 56.2%. The IC50 (curve of compound) is 6.66 µM and > 10 µM.

In the case of `CCCS(=O)(=O)Nc1ccc(F)c(C(=O)c2c[nH]c3ncc(-c4ccc(Cl)cc4)cc23)c1F`, the viability, T/C is 91.8% and 75.6% and 87.7% (compound 0.0316 µM); 75.9% and 81.4% and 57.4% (compound 0.1 µM); 82.7% and 65.9% and 44.2% (compound 0.316 µM); 90% and 62.3% and 54.9% (compound 1 µM); 68% and 89.2% and 50.6% (compound 3.16 µM); 7.12% and 5.31% and 3% (compound 10 µM). The IC50 (curve of compound) is 4.45 µM and 4.78 µM and 1.42 µM.

Consider `C#Cc1c(F)ccc2cc(O)cc(-c3ncc4c(N5CC6CCC(C5)N6)nc(OCC56CCCN5CC(F)C6)nc4c3F)c12` (centres undefined) + CC(Nc1ccc2c(c1)OCCn1cc(N3C(=O)OCC3C(F)F)nc1-2)C(N)=O, for which the IC50 runs as follows: under setting [29], 8.67 µM; under setting [30], 5.16 µM; under setting [1], over 10 µM; under setting [2], over 10 µM; under setting [3], 4.35 µM; under setting [4], under 0.0316 µM. The viability, T/C by setting is: under setting [31], 83.7%; under setting [32], 75.3%; under setting [33], 87.4%; under setting [34], 77.4%; under setting [35], 69.9%; under setting [36], 47.2%. Also, the viability, T/C by setting is: under setting [37], 90%; under setting [38], 84.8%; under setting [39], 72.7%; under setting [40], 79.9%; under setting [41], 56.1%; under setting [42], 38.3%. Besides, the viability, T/C is, setting by setting: under setting [5], 74.9%; under setting [6], 69.8%; under setting [7], 58.5%; under setting [8], 65.9%; under setting [9], 63.5%; under setting [10], 47.8%. In addition, the viability, T/C was 64.9% under setting [11]; 79.8% under setting [12]; 56.1% under setting [13]; 80.5% under setting [14]; 77.8% under setting [15]; 39% under setting [16]. The viability, T/C is, setting by setting: under setting [17], 53.5%; under setting [18], 83.5%; under setting [19], 48.6%; under setting [20], 71.2%; under setting [21], 54.7%; under setting [22], 32.2%. Also, the viability, T/C runs as follows: under setting [23], 45.1%; under setting [24], 45.3%; under setting [25], 47.8%; under setting [26], 60.3%; under setting [27], 59.9%; under setting [28], 30.2%.

The values are drawn from PubChem BioAssay AID1963969 (Molecular Pharmacology Branch, DTP, NCI, 2024).
